The target in one assay is human adenosine A2b receptor (Homo sapiens (Human), UniProt P29275). Nature of the assay: Cellular in vitro reporter gene test for A2b receptor activity (CHO-K1, CRE-luciferase, NECA stimulation).
Chain of human adenosine A2b receptor (P29275 whole entry): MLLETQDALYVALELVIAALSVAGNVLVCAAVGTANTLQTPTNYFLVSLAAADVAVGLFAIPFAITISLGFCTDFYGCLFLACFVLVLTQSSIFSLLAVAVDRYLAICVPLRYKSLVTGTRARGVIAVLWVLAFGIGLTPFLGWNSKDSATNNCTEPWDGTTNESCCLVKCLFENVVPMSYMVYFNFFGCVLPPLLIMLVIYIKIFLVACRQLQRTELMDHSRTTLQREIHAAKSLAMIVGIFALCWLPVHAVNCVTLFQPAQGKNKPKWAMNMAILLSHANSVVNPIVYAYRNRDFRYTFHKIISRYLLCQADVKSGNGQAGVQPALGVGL
Details: not given
Type of assay: cell-based. The procedure, abridged:
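CHO-K1 cells with CRE-driven luciferase; antagonists co-incubated with NECA at its EC50, determined in a pre-experiment on each test day. Luciferase read by luminescence 3 h after NECA addition.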
The term IC50 denotes the midpoint of a concentration-inhibition curve. In turn, `COCCn1c(=O)n(C(C)C(F)(F)F)c(=O)c2c(C)c(Cn3nc[nH]c3=O)sc21` (racemic) [Example 438, 1-(2-Methoxyethyl)-5-methyl-6-[(5-oxo-4,5-dihydro-1H-1,2,4-triazol-1-yl)methyl]-3-(1,1,1-trifluoropropan-2-yl)thieno[2,3-d]pyrimidine-2,4(1H,3H)-dione] yielded an IC50 of 150 nM.

Staying with this assay, now noted: recombinant CHO-K1 cell line, CRE-luciferase reporter, antagonism of EC50 concentration of NECA; in some cases means of several determinations, rounded to two significant figures; read-out: A2b receptor IC50.
Take `COCCn1c(=O)n(C(C)C(F)(F)F)c(=O)c2c(C)c(CN3CCNC3=NC(=O)OC)sc21` (single isomer, unassigned) [Example 515, Methyl [1-{[1-(2-methoxyethyl)-5-methyl-2,4-dioxo-3-(1,1,1-trifluoropropan-2-yl)-1,2,3,4-tetrahydrothieno[2,3-d]pyrimidin-6-yl]methyl}imidazolidin-2-ylidene]carbamate]: the IC50 was determined as 24 nM.
On the same count and under the same terms, the value for `CCn1c(=O)c2c(C)c(CN3CCNC3=O)sc2n(C)c1=O` [Example 76, 3-Ethyl-1,5-dimethyl-6-[(2-oxoimidazolidin-1-yl)methyl]thieno[2,3-d]pyrimidine-2,4(1H,3H)-dione] was 9.3 nM; that for `CCn1c(=O)c2c(C)c(CN3CCNC3=NC(=O)OC)sc2n(CCOC)c1=O` (single isomer, unassigned) [Example 118, Methyl [1-{[3-ethyl-1-(2-methoxyethyl)-5-methyl-2,4-dioxo-1,2,3,4-tetrahydrothieno[2,3-d]pyrimidin-6-yl]methyl}imidazolidin-2-ylidene]carbamate] was 3.1 nM.
Still for that read-out and setting: the value for `COCCn1c(=O)n(CC(C)(C)C)c(=O)c2c(C)c(Cn3nc[nH]c3=O)sc21` [Example 428, 3-(2,2-Dimethylpropyl)-1-(2-methoxyethyl)-5-methyl-6-[(5-oxo-4,5-dihydro-1H-1,2,4-triazol-1-yl)methyl]thieno[2,3-d]pyrimidine-2,4(1H,3H)-dione] was 120 nM; that for `Cc1c(CN2CCNC2=NC#N)sc2c1c(=O)n(CC(F)(F)F)c(=O)n2CCC(F)(F)F` [Example 358, [1-{[5-Methyl-2,4-dioxo-3-(2,2,2-trifluoroethyl)-1-(3,3,3-trifluoropropyl)-1,2,3,4-tetrahydrothieno[2,3-d]pyrimidin-6-yl]methyl}imidazolidin-2-ylidene]cyanamide] was 12 nM; that for `COCCn1c(=O)n(C(C)C(F)(F)F)c(=O)c2c(C)c(CN3CCNC3=NC#N)sc21` (single isomer, unassigned) [Example 510, [1-{[1-(2-Methoxyethyl)-5-methyl-2,4-dioxo-3-(1,1,1-trifluoropropan-2-yl)-1,2,3,4-tetrahydrothieno[2,3-d]pyrimidin-6-yl]methyl}imidazolidin-2-ylidene]cyanamide] was 47 nM.
In the case of `COC(=O)N=C1NCCN1Cc1sc2c(c1C)c(=O)n(CC(F)(F)F)c(=O)n2CC1CCO1` (single isomer, unassigned) [Example 467, Methyl [1-{[5-methyl-1-(oxetan-2-ylmethyl)-2,4-dioxo-3-(2,2,2-trifluoroethyl)-1,2,3,4-tetrahydrothieno[2,3-d]pyrimidin-6-yl]methyl}imidazolidin-2-ylidene]carbamate], the IC50 amounted to 30 nM.
On the same count and under the same terms, the value for `COCCn1c(=O)c2c(C)c(CN3CCNC3=NC#N)sc2n(CC2CCO2)c1=O` (racemic) [Example 364, [1-{[3-(2-Methoxyethyl)-5-methyl-1-(oxetan-2-ylmethyl)-2,4-dioxo-1,2,3,4-tetrahydrothieno[2,3-d]pyrimidin-6-yl]methyl}imidazolidin-2-ylidene]cyanamide] was 170 nM; that for `Cc1c(Cn2[nH]ccc2=O)sc2c1c(=O)n(C(C)C)c(=O)n2CC1CCCO1` (single isomer, unassigned) [Example 135, 3-Isopropyl-5-methyl-6-[(5-oxo-2,5-dihydro-1H-pyrazol-1-yl)methyl]-1-(tetrahydrofuran-2-ylmethyl)thieno[2,3-d]pyrimidine-2,4(1H,3H)-dione] was 46 nM.
As to `Cc1c(Cn2[nH]ccc2=O)sc2c1c(=O)n(CC(F)(F)F)c(=O)n2CC1CCCO1` (racemic) [Example 284, 5-Methyl-6-[(5-oxo-2,5-dihydro-1H-pyrazol-1-yl)methyl]-1-(tetrahydrofuran-2-ylmethyl)-3-(2,2,2-trifluoroethyl)thieno[2,3-d]pyrimidine-2,4(1H,3H)-dione], the IC50 was found to be 79 nM.
On the same count and under the same terms, next, `COCCn1c(=O)c2c(C)c(CN3CCNC3=O)sc2n(CCCF)c1=O` [Example 230, 1-(3-Fluoropropyl)-3-(2-methoxyethyl)-5-methyl-6-[(2-oxoimidazolidin-1-yl)methyl]thieno[2,3-d]pyrimidine-2,4(1H,3H)-dione]: 12 nM.
Same read-out and setting: next, `CCn1c(=O)c2c(C)c(CN3CCNC3=O)sc2n(CC#N)c1=O` [Example 81, {3-Ethyl-5-methyl-2,4-dioxo-6-[(2-oxoimidazolidin-1-yl)methyl]-3,4-dihydrothieno[2,3-d]pyrimidin-1 (2H)-yl}acetonitrile]: 14 nM.
Same read-out and setting: the value for `Cc1c(Cn2nc[nH]c2=O)sc2c1c(=O)n(CC(F)(F)F)c(=O)n2CCC(F)(F)F` [Example 432, 5-Methyl-6-[(5-oxo-4,5-dihydro-1H-1,2,4-triazol-1-yl)methyl]-3-(2,2,2-trifluoroethyl)-1-(3,3,3-trifluoropropyl)thieno[2,3-d]pyrimidine-2,4(1H,3H)-dione] was 92 nM; that for `COCCn1c(=O)c2c(C)c(CN3CCNC3=NC#N)sc2n(CCOC)c1=O` [Example 363, [1-{[1,3-Bis(2-methoxyethyl)-5-methyl-2,4-dioxo-1,2,3,4-tetrahydrothieno[2,3-d]pyrimidin-6-yl]methyl}imidazolidin-2-ylidene]cyanamide] was 19 nM.
With `CCn1c(=O)c2c(C)c(CN3CCNC3=O)sc2n(CCCC(F)(F)F)c1=O` [Example 49, 3-Ethyl-5-methyl-6-[(2-oxoimidazolidin-1-yl)methyl]-1-(4,4,4-trifluorobutyl)thieno[2,3-d]pyrimidine-2,4(1H,3H)-dione], the IC50 amounted to 2.5 nM.
Still for that read-out and setting: next, `COC(C)(C)Cn1c(=O)c2c(C)c(CN3CCNC3=O)sc2n(CCC(F)(F)F)c1=O` [Example 236, 3-(2-Methoxy-2-methylpropyl)-5-methyl-6-[(2-oxoimidazolidin-1-yl)methyl]-1-(3,3,3-trifluoropropyl)thieno[2,3-d]pyrimidine-2,4(1H,3H)-dione]: 6 nM; `Cc1c(CN2CCNC2=S)sc2c1c(=O)n(CC(F)(F)F)c(=O)n2CC1CCCO1` (single isomer, unassigned) [Example 300, 5-Methyl-1-(tetrahydrofuran-2-ylmethyl)-6-[(2-thioxoimidazolidin-1-yl)methyl]-3-(2,2,2-trifluoroethyl)thieno[2,3-d]pyrimidine-2,4(1H,3H)-dione]: 14 nM.
Consider `CCn1c(=O)c2c(C)c(CN3CCNC3=S)sc2n(CCCOC)c1=O` [Example 296, 3-Ethyl-1-(3-methoxypropyl)-5-methyl-6-[(2-thioxoimidazolidin-1-yl)methyl]thieno[2,3-d]pyrimidine-2,4(1H,3H)-dione], for which the IC50 is 16 nM.
Regarding `COCCn1c(=O)n(C(C)C)c(=O)c2c(C)c(Cn3nc[nH]c3=O)sc21` [Example 254, 3-Isopropyl-1-(2-methoxyethyl)-5-methyl-6-[(5-oxo-4,5-dihydro-1H-1,2,4-triazol-1-yl)methyl]thieno[2,3-d]pyrimidine-2,4(1H,3H)-dione], the IC50 was 34 nM.
The same measure, in the same setting: the value for `Cc1c(CN2CCNC2=O)sc2c1c(=O)n(CC(F)F)c(=O)n2CCCF` [Example 95, 3-(2,2-Difluoroethyl)-1-(3-fluoropropyl)-5-methyl-6-[(2-oxoimidazolidin-1-yl)methyl]thieno[2,3-d]pyrimidine-2,4(1H,3H)-dione] was 11 nM; that for `CCn1c(=O)c2c(C)c(Cn3[nH]ccc3=O)sc2n(CCOC)c1=O` [Example 128, 3-Ethyl-1-(2-methoxyethyl)-5-methyl-6-[(5-oxo-2,5-dihydro-1H-pyrazol-1-yl)methyl]thieno[2,3-d]pyrimidine-2,4(1H,3H)-dione] was 4.7 nM; that for `COCCn1c(=O)c2c(C)c(Cn3[nH]ccc3=O)sc2n(CC2CCCO2)c1=O` (single isomer, unassigned) [Example 291, 3-(2-Methoxyethyl)-5-methyl-6-[(5-oxo-2,5-dihydro-1H-pyrazol-1-yl)methyl]-1-(tetrahydrofuran-2-ylmethyl)thieno[2,3-d]pyrimidine-2,4(1H,3H)-dione] was 190 nM.
The same measure, in the same setting: next, `[2H]C([2H])(c1sc2c(c1C)c(=O)n(C(C)C)c(=O)n2CCOC)N1CCNC1=NC#N` [Example 512, [1-{[3-Isopropyl-1-(2-methoxyethyl)-5-methyl-2,4-dioxo-1,2,3,4-tetrahydrothieno[2,3-d]pyrimidin-6-yl](dideutero)methyl}imidazolidin-2-ylidene]cyanamide]: 5.1 nM.
Same read-out and setting: the value for `COCCn1c(=O)n(CC(C)(C)OC)c(=O)c2c(C)c(CN3CCNC(=O)C3=O)sc21` [Example 281, 6-[(2,3-Dioxopiperazin-1-yl)methyl]-1-(2-methoxyethyl)-3-(2-methoxy-2-methylpropyl)-5-methylthieno[2,3-d]pyrimidine-2,4(1H,3H)-dione] was 46 nM.
As for `Cc1c(Cn2nc[nH]c2=O)sc2c1c(=O)n(CC(F)(F)F)c(=O)n2CC1CCCO1` (racemic) [Example 434, 5-Methyl-6-[(5-oxo-4,5-dihydro-H-1,2,4-triazol-1-yl)methyl]-1-(tetrahydrofuran-2-ylmethyl)-3-(2,2,2-trifluoroethyl)thieno[2,3-d]pyrimidine-2,4(1H,3H)-dione], the IC50 is 82 nM.
On the same count and under the same terms, next, `Cc1c(CN2CCNC2=O)sc2c1c(=O)n(CC(C)(C)C)c(=O)n2CCC(F)(F)F` [Example 200, 3-(2,2-Dimethylpropyl)-5-methyl-6-[(2-oxoimidazolidin-1-yl)methyl]-1-(3,3,3-trifluoropropyl)thieno[2,3-d]pyrimidine-2,4(1H,3H)-dione]: 2.9 nM.
